Laboratory results from patent US20100029734A1, “METHODS FOR BREAST CANCER SCREENING AND TREATMENT” (Ore Pharmaceuticals Inc., priority 2008, published 2010).
Entries after “also recorded” stand apart in the source; their conditions may differ.

How the values were obtained:
[1] = system: T47D xenografts; experiment: Growth of ER+ breast cancer cell line xenografts in NODscid mice; assay type: in vivo; details: 3-5 weeks, female NODscid mice
Description: Female NODscid mice of age 5-6 weeks received a subcutaneous estrogen pellet implant (1.7 mg). Twenty four hours after estrogen pellet implantation, the mice received tumor implantation by subcutaneous injection of T47D cells to the flank (approximately 2.5×10^6 cells/mouse). The mice were ear-notched for identification and housed 4 animals per cage. […] Tumors were measured 3 times weekly using digital calipers. Body weight was measured twice weekly. Clinical observations were conducted weekly.

[2] = system: T47D (ER+ cell line); experiment: RT-CES cell proliferation assay, T47D; assay type: cell-based, human
Description: (§1) Unless otherwise indicated, cell proliferation assays described in Examples 2-5 were performed using a Real-Time Cell Electronic Sensing (RT-CES™ 96X) instrument from ACEA Bioscience (San Diego, Calif.). This instrument utilizes an electronic readout (impedance) to non-invasively quantify adherent cell proliferation and viability in real time.
(§2) Cells were seeded in 96-well microtiter plates containing microelectronic sensor arrays (96E plates; ACEA). Cells were maintained in RPMI 1640 (Invitrogen, Carlsbad, Calif.) supplemented with 10% fetal bovine serum (FBS) (Hyclone, Logan, Utah) and were cultured at 37° C. in a humidified atmosphere containing 5% CO2. For proliferation assays, cells were seeded (20,000 cells/well), allowed to attach and grown overnight in standard growth medium. Cells were then serum-starved for 8 hours prior to the proliferation assay in presence or absence of test compound(s). The proliferation response was continuously monitored by measuring the impedance change in each well for the indicated number of hours. Data are expressed as cell index (CI) change relative to time in culture, reflecting measured changes in electrical impedance. Each value shown is an average of 6 wells.
(§3) T47D (American Type Culture Collection, Manassas, Va. (ATCC) cat. HTB-133) is an ER+ cell line derived from human mammary gland ductal carcinoma Other ER+ cell lines used in studies reported herein include ZR-75 and HCC70. HCC1143 (ATCC cat. CRL-2321) is an ER− cell line also derived from human mammary gland ductal carcinoma.
(§4) Following the 8 hour starvation phase, either Ang II (Sigma-Aldrich), 500 nM, or vehicle control was added to the cell culture. […] Ang II also stimulated proliferation of ER+ cell lines HCC70, by approximately 30%, and ZR-75, by approximately 35%, relative to vehicle control (data not shown).

[3] = system: HCC1143 (ER− cell line); experiment: RT-CES cell proliferation assay, HCC1143; assay type: cell-based, human
Description: as §1, §2, §3, §4

[4] = system: HCC70; experiment: RT-CES cell proliferation assay, HCC70; assay type: cell-based, human
Description: as §1
as §2, with “wells. […]” for “wells.”

[5] = system: ZR-75; experiment: RT-CES cell proliferation assay, ZR-75; assay type: cell-based, human
Description: as §1
as §2, with “wells. […]” for “wells.”

[6] = system: HCC1395; experiment: RT-CES cell proliferation assay, HCC1395; assay type: cell-based, human
Description: as §1
as §2, with “wells. […]” for “wells.”

[7] = system: HCC1954; experiment: RT-CES cell proliferation assay, HCC1954; assay type: cell-based, human
Description: as §1
as §2, with “wells. […]” for “wells.”

[8] = system: HCC1937; experiment: RT-CES cell proliferation assay, HCC1937; assay type: cell-based, human
Description: as §1
as §2, with “wells. […]” for “wells.”

[9] = system: HCC38; experiment: RT-CES cell proliferation assay, HCC38; assay type: cell-based, human
Description: as §1
as §2, with “wells. […]” for “wells.”

[10] = system: cells cultured from invasive ductal carcinomas; details: cells positive for ER and PR, cited from earlier work
[11] = system: T47D; details: cited from earlier work
[12] = system: MCF-7; details: cited from earlier work
[13] = system: T47D (ER+, PR+); details: T47D cells; cited from earlier work
[14] = system: invasive breast cancer; details: administered for 5 years; women having risk factors; cited from earlier work

**Q.** For `CCOc1nc2cccc(C(=O)OC(C)OC(=O)OC3CCCCC3)c2n1Cc1ccc(-c2ccccc2-c2nnn[nH]2)cc1` (stereo not shown) [candesartan cilexetil], which “growth in tumor volume” value ([1]; candesartan cilexetil 10, 30, 100 mg/kg p.o. once daily) is on record?
**A.** reduced in a dose-dependent fashion

**Q.** Which results are given for `CCCCC1=NC2(CCCC2)C(=O)N1Cc1ccc(-c2ccccc2-c2nnn[nH]2)cc1` [irbesartan]?
**A.** inhibition of Ang II-induced growth / cell proliferation ([2]; T47D, AT1 receptor antagonist 5 μM + Ang II 500 nM): significantly inhibited Ang II-induced growth; also recorded: reversed the Ang II effect; effect on cell proliferation ([3]; HCC1143, AT1 receptor antagonist 5 μM + Ang II 500 nM, data not shown): No effects; growth in tumor volume ([1]; irbesartan 30, 100, 300 mg/kg p.o. once daily): lowest dose tested (30 mg/kg) appeared to give the greatest effect

**Q.** With “Ang II: peptide angiotensin II, a major regulator of blood pressure and cardiovascular homeostasis; from Sigma-Aldrich (DRVYIHPF; Angiotensin-2; UniProt P01019 25-32, looked up)” as the molecule, how does the “Ang II proliferation response” value ([2]; T47D) read?
**A.** positive

**Q.** What about the “effect of Ang II on growth / cell proliferation” value ([2]; T47D (ER+), Ang II 500 nM vs vehicle control, after 8 h serum starvation) of the same molecule?
**A.** significantly stimulated growth; also recorded: substantial increase in cell proliferation

**Q.** What about the “Ang II proliferation response” value ([3]; HCC1143) of the same molecule?
**A.** negative

**Q.** And the “effect of Ang II on growth / cell proliferation” value ([3]; HCC1143 (ER−), Ang II 500 nM vs vehicle control)?
**A.** No effects

**Q.** What about the “Ang II proliferation response” value ([4]; HCC70) of the same molecule?
**A.** positive

**Q.** What about the “stimulation of proliferation relative to vehicle control” value ([4]; HCC70 (ER+), Ang II, data not shown) of the same molecule?
**A.** approximately 30%

**Q.** What about the “Ang II proliferation response” value ([5]; ZR-75) of the same molecule?
**A.** positive

**Q.** And the “stimulation of proliferation relative to vehicle control” value ([5]; ZR-75 (ER+), Ang II, data not shown)?
**A.** approximately 35%

**Q.** What about the “Ang II proliferation response” value [6] of the same molecule?
**A.** negative

**Q.** What about the “Ang II proliferation response” value [7] of the same molecule?
**A.** negative

**Q.** And the “Ang II proliferation response” value [8]?
**A.** negative

**Q.** And the “Ang II proliferation response” value [9]?
**A.** negative

**Q.** And the “proliferation of cultured cells” value ([10]; Ang II)?
**A.** stimulated in a dose-dependent manner

**Q.** What about the “stimulation of cell growth by Ang II” value [11] of the same molecule?
**A.** significant stimulation of cell growth

**Q.** What about the proliferative effect [12] of the same molecule?
**A.** dose-dependent proliferative effect

**Q.** For `NCCCCC(NC(CCc1ccccc1)C(=O)O)C(=O)N1CCCC1C(=O)O.O.O` (stereo not shown) [lisinopril, 1-(6-amino-2-(1-carboxy-3-phenyl-propyl)aminohexanoyl)pyrrolidine-2-carboxylic acid dihydrate], which ER protein concentration [13] is on record?
**A.** No such effects

**Q.** And the PR protein concentration [13]?
**A.** No such effects

**Q.** And the “[3H]thymidine incorporation (an index of cell proliferation)” value [13]?
**A.** No such effects

**Q.** What does the source list for `CC/C(=C(\c1ccccc1)c1ccc(OCCN(C)C)cc1)c1ccccc1` [tamoxifen]?
**A.** effect on Ang II-induced cell proliferation ([2]; T47D, tamoxifen 7.5 μM + Ang II 500 nM): reduced cell proliferation to a level lower than that of vehicle control; growth in tumor volume ([1]; tamoxifen 0.1, 0.3, 1.0 mg/kg p.o. once daily): reduced in a dose-dependent fashion; reduction of incidence of invasive breast cancer [14]: ~50%

**Q.** For `CCCc1nc2c(C)cc(-c3nc4ccccc4n3C)cc2n1Cc1ccc(-c2ccccc2C(=O)O)cc1` [telmisartan], which “inhibition of Ang II-induced growth” value ([2]; T47D, telmisartan 1.25 μM or 5 μM + Ang II 500 nM) is on record?
**A.** significantly inhibited Ang II-induced growth

**Q.** And the “effect on cell proliferation” value ([3]; HCC1143, telmisartan 1.25 μM or 5 μM + Ang II 500 nM)?
**A.** No effects

**Q.** For `CCCCc1nc(Cl)c(CO)n1Cc1ccc(-c2ccccc2-c2nn[nH]n2)cc1` [losartan], which “effect on Ang II-stimulated proliferation” value [10] is on record?
**A.** blocked

**Q.** What does the source list for `C[C@H](CS)C(=O)N1CCC[C@H]1C(=O)O` [Captopril, (2S)-1-((2S)-2-methyl-3-sulfanylpropanoyl)pyrrolidine-2-carboxylic acid]?
**A.** ER protein concentration [13]: reduced ER; PR protein concentration [13]: increased PR; [3H]thymidine incorporation (an index of cell proliferation) [13]: inhibited [3H]thymidine incorporation
